This is an account of results in patent US11993574B2, “Pyrazole and imidazole compounds for inhibition of IL-17 and RORgamma” (REATA PHARMACEUTICALS, INC., priority 2018, dated 2024).

Holding throughout (format): cell-based
The test system of one experiment is IL-17A. As to the kind of experiment: IL-17 release from differentiated primary human T-cells (IL-17A HTRF assay). The note with it: primary human CD4+ T cells differentiated into Th17 cells, 45-hour incubation, IL-17A in supernatant; read-out: hIL17 IC50. In short, it runs like this:
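Primary human CD4+ T cells (~2×10^5/well) given compound (2–500 or 4–1000 nM, 0.1% DMSO), CD3/CD28-activated and Th17-differentiated (TGF-β, IL-6, IL-23, IL-1β) for 45 h at 37° C. Supernatant IL-17A by HTRF against standard curve, normalized to vehicle; IC50 by variable-slope regression, with parallel CyQuant viability.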
Background: Time-resolved FRET reads energy transfer from a long-lived donor to a nearby acceptor.

The target in experiment [1] is T1, Human RAR-related Orphan Receptor Gamma (RORγ) (Homo sapiens, UniProt P51449).
T1 sequence (P51449 269-508 limits assumed): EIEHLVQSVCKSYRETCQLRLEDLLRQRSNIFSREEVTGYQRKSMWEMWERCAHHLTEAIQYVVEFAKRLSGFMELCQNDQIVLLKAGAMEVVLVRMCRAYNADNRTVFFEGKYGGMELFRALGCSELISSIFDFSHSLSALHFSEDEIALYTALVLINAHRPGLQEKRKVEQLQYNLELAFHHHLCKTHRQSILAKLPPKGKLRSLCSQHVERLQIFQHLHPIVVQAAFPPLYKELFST
The experiment in a line: RORγ assay (GAL4-RORγ hybrid luciferase reporter, Indigo Biosciences). As to conditions: inverse-agonist activity, GAL4-RORγ reporter cells, 23 hours. The essentials: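 […]engineered human reporter cell line expressing GAL4-DBD/RORγ-LBD hybrid with GAL4-UAS luciferase; constitutive activity measured as inverse agonism. Cells treated with compound (7.8-2000 nM) for 23 h at 37 °C; luminescence normalized to DMSO, IC50 by variable-slope fit, with parallel viability readout to flag non-specific inhibition.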
A general note: A reporter such as luciferase makes a cellular process visible.

Experiment [2] deals with Nrf2 transcription factor. As to the kind of experiment: AREc32 luciferase reporter assay. As to conditions: Homo sapiens; AREc32 cells, 19 hours; concentration required to increase GST ARE luciferase reporter activity by 2-fold; read-out: NRF2 ARE 2-Fold (EC2×). In short, it runs like this: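 AREc32 cells (MCF-7 with firefly luciferase under eight rat GSTA2 ARE copies) treated 19 h with compound (0.4-200 nM or 3.9-2000 nM) in triplicate. Luminescence normalized to DMSO as fold-induction, capped at 50-fold. EC2× = concentration giving 2-fold reporter increase, interpolated from variable-slope fit.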

By IC50 is commonly meant the concentration that gives 50% inhibition. With `C[C@H]1C(=O)C(C#N)=C[C@@]2(C)c3c(c(-c4cccc(F)c4)nn3-c3ccnc4ccccc34)CC[C@H]12` [T104], the figures for the IC50 (in the experiment with IL-17A; in experiment [1]) were 0.062 µM and 0.208 µM, respectively. For the same compound, the EC (2-fold) in experiment [2] stood at 0.638 µM.
On to `C[C@H]1C(=O)C(C#N)=C[C@@]2(C)c3c(c(-c4ccccc4)nn3-c3ccc(-c4cccc(CO)c4)cc3)CC[C@H]12` [T45], for which the 50% inhibitory concentration (IC50) was determined as 0.022 µM in the experiment on IL-17A and 0.044 µM in experiment [1]. Moreover, in experiment [2], the EC (2-fold) is 0.147 µM.
For `C[C@H]1C(=O)C(C#N)=C[C@@]2(C)c3nc(-c4ccnc5ccccc45)n(-c4cccnc4)c3CC[C@H]12` [T154], in that order: 0.415 µM, 0.572 µM and 1.97 µM.
The corresponding values for `Cc1ccc(-c2ccc(-n3nc(-c4ccccc4)c4c3[C@]3(C)C=C(C#N)C(=O)[C@H](C)[C@H]3CC4)cc2)cc1` [T41] are 0.025 µM, 0.083 µM and 0.249 µM.
As to `C[C@H]1C(=O)C(C#N)=C[C@@]2(C)c3c(c(N4CCOCC4)nn3-c3ccc(-c4ccccc4)cc3)CC[C@H]12` [T77], the results for the IC50 (with IL-17A; in experiment [1]) were 0.068 µM and 0.111 µM, respectively. Moreover, in experiment [2], the EC (2-fold) was found to be 0.908 µM.
The corresponding values for `C[C@H]1C(=O)C(C#N)=C[C@@]2(C)c3c(c(-c4ccccc4)nn3-c3ccc(-c4cccc(F)c4)cc3)CC[C@H]12` [T40] are 0.023 µM, 0.08 µM and 0.238 µM.
`C[C@H]1C(=O)C(C#N)=C[C@@]2(C)c3c(c(-c4ccncn4)nn3-c3ccc(-c4ccc(F)cc4)cn3)CC[C@H]12` [T56]: the IC50 was 0.055 µM with IL-17A and 0.099 µM in experiment [1]. Moreover, the EC (2-fold) in experiment [2] was 0.433 µM.
The corresponding values for `CC(C)c1ccc(-c2nc3c(n2Cc2ccncc2)CC[C@@H]2[C@@H](C)C(=O)C(C#N)=C[C@@]32C)cc1` [T171] are 0.157 µM, 0.26 µM and 1.01 µM.
As to `CNc1nn(-c2ccc(-c3ccccc3)cc2)c2c1CC[C@@H]1[C@@H](C)C(=O)C(C#N)=C[C@@]21C` [T79], the IC50 with IL-17A came to 0.178 µM; in experiment [1], 0.14 µM. Besides, the EC (2-fold) in experiment [2] came to 1.04 µM.
In the case of `C[C@H]1C(=O)C(C#N)=C[C@@]2(C)c3c(c(-c4ccncn4)nn3-c3ccc(-c4cccnc4)cc3)CC[C@H]12` [T51], the figures for the IC50 (with IL-17A; in experiment [1]) were 0.091 µM and 0.048 µM, respectively. Also, the EC (2-fold) in experiment [2] was 0.501 µM.
The corresponding values for `Cc1noc(-c2nn(-c3ccc(-c4ccccc4)cc3)c3c2CC[C@@H]2[C@@H](C)C(=O)C(C#N)=C[C@@]32C)n1` [T96] are 0.032 µM, 0.059 µM and 0.258 µM.
With `Cc1noc(-c2nn(-c3ccc(-c4cccnc4)cc3)c3c2CC[C@@H]2[C@@H](C)C(=O)C(C#N)=C[C@@]32C)n1` [T109], the IC50 with IL-17A was 0.163 µM; in experiment [1] it was 0.089 µM. In experiment [2], the EC (2-fold) is 0.543 µM.
For `CC(C)c1ccc(-c2nc3c(n2C)CC[C@@H]2[C@@H](C)C(=O)C(C#N)=C[C@@]32C)cc1` [T163], in that order: 0.255 µM, 0.152 µM and 1.13 µM.
`CC(C)c1ccc(-c2nc3c(n2Cc2ccc(F)cc2)CC[C@@H]2[C@@H](C)C(=O)C(C#N)=C[C@@]32C)cc1` [T167]: the IC50 in the experiment on IL-17A was 0.053 µM; in experiment [1], 0.245 µM. In addition, the EC (2-fold) in experiment [2] came out at 1.11 µM.
The corresponding values for `C[C@H]1C(=O)C(C#N)=C[C@@]2(C)c3c(c(-c4ccc(CO)cc4)nn3-c3ccc(-c4ccccc4)cc3)CC[C@H]12` [T73] are 0.03 µM, 0.04 µM and 0.159 µM.
The corresponding values for `CC(C)c1ccc(-c2nc3c(n2-c2cccnc2)CC[C@@H]2[C@@H](C)C(=O)C(C#N)=C[C@@]32C)cc1` [T153] are 0.108 µM, 0.334 µM and 1.25 µM.
In the case of `Cc1ccccc1-c1ccc(-n2nc(-c3ccccc3)c3c2[C@]2(C)C=C(C#N)C(=O)[C@H](C)[C@H]2CC3)cc1` [T44], the figures for the IC50 (with IL-17A; in experiment [1]) were 0.041 µM and 0.083 µM, respectively. The EC (2-fold) in experiment [2] was 0.242 µM.
For `Cc1ccc(-n2nc3c(c2-c2ccccc2)CC[C@@H]2[C@@H](C)C(=O)C(C#N)=C[C@@]32C)cc1` [T118], in that order: 0.158 µM, 0.122 µM and 0.635 µM.
For `C[C@H]1C(=O)C(C#N)=C[C@@]2(C)c3c(c(-c4ccncn4)nn3-c3ccc(-c4ccccc4)cc3)CC[C@H]12` [T48], in that order: 0.03 µM, 0.045 µM and 0.187 µM.
As for `C[C@H]1C(=O)C(C#N)=C[C@@]2(C)c3c(c(-c4ccccc4)nn3-c3ccc(OC(F)(F)F)cc3)CC[C@H]12` [T19], the IC50 in the experiment with IL-17A was 0.032 µM; in experiment [1], 0.085 µM. Moreover, the EC (2-fold) in experiment [2] turned out to be 0.247 µM.
The corresponding values for `C[C@H]1C(=O)C(C#N)=C[C@@]2(C)c3c(c(-c4ccccc4)nn3C3CCOCC3)CC[C@H]12` [T27] are 0.061 µM, 0.132 µM and 0.204 µM.
For `C[C@H]1C(=O)C(C#N)=C[C@@]2(C)c3c(c(Nc4ccccc4)nn3-c3ccc(-c4ccccc4)cc3)CC[C@H]12` [T100], in that order: 0.016 µM, 0.11 µM and 0.319 µM.
Take `C[C@H]1C(=O)C(C#N)=C[C@@]2(C)c3c(c(-c4ccncn4)nn3-c3ccc(-c4cccnc4)cc3F)CC[C@H]12` [T53]: the IC50 with IL-17A turned out to be 0.088 µM; in experiment [1] it was 0.057 µM. Further, the EC (2-fold) in experiment [2] is 0.489 µM.
With `C[C@H]1C(=O)C(C#N)=C[C@@]2(C)c3nn(-c4ccc(-c5ccccc5)cc4)c(-c4ccncc4)c3CC[C@H]12` [T124], the figures for the IC50 (in the experiment on IL-17A; in experiment [1]) were 0.077 µM and 0.123 µM, respectively. The EC (2-fold) in experiment [2] is 0.651 µM.
On to `CC(=O)n1c(-c2ccc(C(C)C)cc2)nc2c1CC[C@@H]1[C@@H](C)C(=O)C(C#N)=C[C@@]21C` [T174], for which the values for the half-inhibitory concentration (IC50) (with IL-17A; in experiment [1]) were 0.368 µM and 1.6 µM, respectively. Also, the EC (2-fold) in experiment [2] came out at 0.923 µM.
As to `Cc1noc(-c2ccc(-n3nc(-c4ccc(F)cc4)c4c3[C@]3(C)C=C(C#N)C(=O)[C@H](C)[C@H]3CC4)cc2)n1` [T106], the IC50 with IL-17A worked out at 0.027 µM; in experiment [1] it was 0.083 µM. Moreover, the EC (2-fold) in experiment [2] amounted to 0.29 µM.
For `C[C@H]1C(=O)C(C#N)=C[C@@]2(C)c3nn(-c4ccc(-c5ccccc5)cc4)c(-c4ccncn4)c3CC[C@H]12` [T120], the figures for the IC50 (in the experiment on IL-17A; in experiment [1]) were 0.054 µM and 0.092 µM, respectively. For the same compound, the EC (2-fold) in experiment [2] came out at 0.908 µM.
For `Cc1noc(-c2ccc(-n3nc(-c4ccccc4F)c4c3[C@]3(C)C=C(C#N)C(=O)[C@H](C)[C@H]3CC4)cc2)n1` [T95], in that order: 0.04 µM, 0.062 µM and 0.185 µM.
For `C[C@H]1C(=O)C(C#N)=C[C@@]2(C)c3nc(-c4cccc(-c5ccncc5)c4)n(-c4cccc(F)c4)c3CC[C@H]12` [T146], in that order: 0.07 µM, 0.106 µM and 0.423 µM.
The corresponding values for `C[C@H]1C(=O)C(C#N)=C[C@@]2(C)c3nc(-c4ccnc(N5CCOCC5)c4)n(-c4cnn(C)c4)c3CC[C@H]12` [T160] are 0.468 µM, 0.562 µM and > 2 µM.
Turning to `C[C@H]1C(=O)C(C#N)=C[C@@]2(C)c3c(c(-c4ccccc4F)nn3-c3nc4ccccc4[nH]3)CC[C@H]12` [T91], the IC50 in the experiment with IL-17A was > 0.5 µM; in experiment [1], > 2 µM. The EC (2-fold) in experiment [2] is > 2 µM.
In the case of `C[C@H]1C(=O)C(C#N)=C[C@@]2(C)c3c(c(-c4ccncn4)nn3-c3nc4ccccc4s3)CC[C@H]12` [T98], the figures for the IC50 (with IL-17A; in experiment [1]) were 0.078 µM and 0.289 µM, respectively. Further, the EC (2-fold) in experiment [2] was 0.275 µM.
For `COCCn1c(-c2ccc(C(C)C)cc2)nc2c1CC[C@@H]1[C@@H](C)C(=O)C(C#N)=C[C@@]21C` [T164], the values for the IC50 (in the experiment on IL-17A; in experiment [1]) were 0.158 µM and 0.237 µM, respectively. In addition, the EC (2-fold) in experiment [2] is > 2 µM.
Turning to `C[C@H]1C(=O)C(C#N)=C[C@@]2(C)c3nn(-c4ccc(-c5ccccc5)cc4)c(-c4ccccc4F)c3CC[C@H]12` [T123], the IC50 in the experiment on IL-17A is 0.05 µM; in experiment [1], 0.139 µM. The EC (2-fold) in experiment [2] came to 1.18 µM.
For `CC(C)c1ccc(-c2nc3c(n2-c2cnn(C)c2)CC[C@@H]2[C@@H](C)C(=O)C(C#N)=C[C@@]32C)cc1` [T156], in that order: 0.128 µM, 0.117 µM and 1.16 µM.
